Entries after “also recorded” stand apart in the source; their conditions may differ. Like-named read-outs stand apart in the source and are kept apart here.
Assays:
human monocytes = assay: Monocyte chemotaxis, modified Boyden chamber technique; assay type: cell-based; details: chemoattractant conc. 10^-8 M
Procedure: Chemotaxis was measured using the modified Boyden chamber technique (Snyderman et al.). The leading front method (Zigmond et al.) was used to assess migration of monocytes and lymphocytes through a 8 μm filter (Millipore Corporation, Bedford, Mass.). PMN chemotaxis was measured using a 3 μm filter (Millipore). The purified CAP37 protein (Example 1) used in chemotaxis assays were endotoxin-free as determined by the Limulus Amoebocyte Lysate Assay (Whittaker Bioproducts, Inc., Walkersville, Md.). The dilutions of CAP37 and N-formyl-methionyl-leucyl-phenylalanine (FMLP) were made in Geys buffer (Gibco) containing 2% endotoxin-free bovine serum albumin (BSA). Geys buffer containing 2% BSA served as the negative control, and a […] solution of FMLP as the positive control.
The chambers were incubated in a humidified atmosphere (6.2% CO2) for 2 hours when testing monocytes and lymphocytes, and for 30 minutes when testing PMNs. The filters were then removed and processed as previously described (Snyderman et al.). The cells were viewed using oil immersion and the distance the cells had migrated into the filter was determined over five different fields on the same slide (Zigmond et al.). Triplicate assays were performed for each experimental point.
The three peptides were tested for chemotactic activity towards monocytes using the modified Boyden Chamber technique described in Example 2. The monocyte chemotactic activity of each peptide fragment at concentrations ranging from 10^-7 to 10^-13 M was compared with Geys buffer (negative control), FMLP 10^-8 M (positive control) and purified CAP37 10^-9 M (positive control). […] The effect of peptide 1 on monocyte chemotaxis is illustrated in Table 2 while the effect of peptide 3 on monocyte chemotaxis is illustrated in Table 3.

[1] = test system: Salmonella typhimurium SH9178; assay: Bactericidal assay; assay type: cell-based; details: for bactericidal effect on Salmonella typhimurium SH9178 (in words): FIGS. 12, 13, 15, 1 hour at 37° C.; for % survival with peptide 20-44: Salmonella SH9178
Procedure: (§1) An overnight culture of Salmonella typhimurium (or other microorganism of interest, if desired) is set up by inoculating one colony in 5 ml of LB Broth (LB Broth consists of 10 g BACTO tryptone (DIFCO), 5 g BACFO yeast (DIFCO) and 5 g NaCl made up to 1 L with endotoxin free water; add 15 g of BACTO agar (DIFCO) to this broth to make LB agar (autoclave). The culture is incubated at 37° C. with rotation. 100 μl of this overnight culture is then transferred to 5 ml of fresh LB Broth and incubated at 37° C. with rotation for 2 hours. Four ml of this log phase culture is then transferred to a sterile cuvette and the optical density is read at […]. Dilutions of the microorganism are then made in tryptone saline (5 g BAOTO tryptone (DIFCO) and 5 g NaCl made up to 1 L with endotoxin free water, pH 5.5) to give a final concentration of 5×10^3 organisms/ml (an O.D. reading of 0.25 at 520 mm is equivalent to 1×10^8 organisms/ml). The microorganisms are placed at 4° C. until ready to be used.
(§2) The stock solutions of peptides are stored at -20° C. at concentrations of 1 mg/ml of endotoxin-free water. The peptide is diluted out in tryptone saline to the desired concentration. 100 μl of the peptide is added to each well of the microtitre plate (Corning) and then 100 μl of the bacterial suspension (well vortexed) is added. Each assay point is set up in triplicate. 100 μl of a control, consisting of bacteria and tryptone saline (T=0) in the absence of peptide is plated out on LB agar plates. The microliter plate is then incubated at 37° C. for 1 hour. At the end of the incubation time, 100 μl of each sample is plated out on LB agar plates. The T=60 control (consisting of bacteria and tryptone saline in the absence of peptide) is plated out last. The plates are incubated overnight, and the number of colony forming units (CFU) are determined.
(§3) The % killed is determined as follows: [formula]

L monocytogenes = assay: Bactericidal assay; assay type: cell-based, Listeria monocytogenes
Procedure: as §1
(§4) The stock solutions of peptides are stored at -20° C. at concentrations of 1 mg/ml of endotoxin-free water. The peptide is diluted out in tryptone saline to the desired concentration. […] The plates are incubated overnight, and the number of colony forming units (CFU) are determined.
as §3

wild type LPS = assay: Neutralization of LPS activity, limulus amebocyte lysate (LAL) assay, wild type LPS; assay type: biochemical
Procedure: (§5) Further, the neutralization of LPS activity, as assayed by the limulus amebocyte lysate (LAL) assay, by CAP37 was measured. CAP37 was diluted to the desired concentrations (from 6.2 ng/ml to 500 ng/ml) in geys buffered saline pH 7 (GIBCO). To this wild type LPS (RIBI IMMUNOCHEM) or Re LPS from Salmonella (David Morrison, Kansas Medical Center) was added so that the final concentrations were 0.1, 0.5, 1.0 and 2.0 ng/ml LPS. The tubes were incubated at 37° C. for between 30 to 60 minutes and then assayed in the chromogenic LAL assay, using polymyxin E as a control.
(§6) As discussed in Example 11, peptides can be screened for lipopolysaccharide neutralizing capacity using the LAL assay also. The CAP37 peptide was diluted to the desired concentrations (from 125 ng/ml to 4000 ng/ml) in geys buffered saline pH 7 (GIBCO). To this is added the wild type LPS (RIBI IMMUNOCHEM) or Re LPS from Salmonella (David Morrison, Kansas Medical Center) so that the final concentration is 0.1, 0.5, and 1.0 ng/ml LPS. The tubes were incubated at 37° C. for between 30 to 60 minutes and then assayed in the chromogenic LAL assay.

[2] = test system: gram negative and gram positive bacteria; assay: Bactericidal assay, assortment of bacteria (FIG. 14); assay type: cell-based
Procedure: as §1, §4, §3

Strep. pyogenes = assay: Bactericidal assay; assay type: cell-based, Streptococcus pyogenes
Procedure: as §1, §4, §3

Ps. aeruginosa = assay: Bactericidal assay; assay type: cell-based, Pseudomonas aeruginosa; details: for % survival with peptide 20-44: Ps. aeruginosa; for bactericidal activity (in words): Pseudomonas
Procedure: as §1, §2, §3

E. coli = assay: Bactericidal assay; assay type: cell-based, Escherichia coli
Procedure: as §1, §2, §3

Salmonella SH7426 = assay: Bactericidal assay; assay type: cell-based
Procedure: as §1, §2, §3

Salmonella SH7518 = assay: Bactericidal assay; assay type: cell-based, Salmonella typhimurium; details: for % survival with peptide 20-44: Salmonella SH7518
Procedure: as §1, §2, §3

Salmonella LT2 = assay: Bactericidal assay; assay type: cell-based, Salmonella typhimurium; details: for % survival with peptide 20-44: Salmonella LT2; for bactericidal activity (in words): Salmonella typhimurium LT2
Procedure: as §1, §2, §3

[3] = test system: Salmonella typhimurium SH9178; assay: Inhibition of the bactericidal effect by LPS and Lipid A; assay type: cell-based; details: peptide at 200 μg/ml, FIG. 16
Procedure: To identity, those peptides derived from CAP37 having bacterial LPS-binding activity, the peptide fragments having bactericidal activity were tested to ascertain whether LPS or Lipid A inhibited that activity.

P. mirabilis Re45 = assay: Bactericidal assay; assay type: cell-based, Proteus mirabilis; details: for % survival with peptide 20-44: P. mirabilis Re45
Procedure: as §1, §2, §3

E. faecalis = assay: Bactericidal assay; assay type: cell-based, Enterococcus faecalis
Procedure: as §1, §2, §3

S. aureus 502A = assay: Bactericidal assay; assay type: cell-based, Staphylococcus aureus
Procedure: as §1, §4, §3

Re LPS from Salmonella = assay: Neutralization of LPS activity, limulus amebocyte lysate (LAL) assay, Re LPS; assay type: biochemical
Procedure: as §5, §6

## CSCC[C@H](NC=O)C(=O)N[C@@H](CC(C)C)C(=O)N[C@@H](Cc1ccccc1)C(=O)O [FMLP, N-formyl-methionyl-leucyl-phenylalanine, reference compound]
Human monocytes; Table 2
  Distance migrated in μm: 86.2 μm
Human monocytes; Table 3
  Distance migrated in μm: 91.4 μm

## 26-42aa: synthesized peptide fragment, amino acids 26-42 of the mature CAP37 protein (CGGALIHARFVMTAASC; UniProt P20160 52-68, looked up, fragment)
[1]
  bactericidal effect on Salmonella typhimurium SH9178 (in words): minimal activity

## peptide 20-44aa: synthesized peptide fragment, amino acids 20-44 of the mature CAP37 protein (NQGRHFCGGALIHARFVMTAASCFQ)
L monocytogenes; 50 uM
  % survival with peptide 20-44: 65.8%
L monocytogenes; 75 uM
  % survival with peptide 20-44: 64.6%
Wild type LPS
  neutralization of wild type LPS activity (LAL assay): neutralizing its effect to a certain extent
[2]
  antibacterial activity against gram negative and gram positive bacteria (in words): active against a wide assortment of bacteria
[2]; listed as peptide 20-14aa
  antibacterial activity against gram negative and gram positive bacteria (in words): active against many other bacteria
Strep. pyogenes; 50 uM
  % survival with peptide 20-44: 93.4%
Strep. pyogenes; 75 uM
  % survival with peptide 20-44: 78%
Ps. aeruginosa; 50 uM
  % survival with peptide 20-44: 0%
Ps. aeruginosa; 75 uM
  % survival with peptide 20-44: 0%
Ps. aeruginosa
  bactericidal activity (in words): more active
Ps. aeruginosa; listed as CAP37 peptide 20-44
  bactericidal activity (in words): most active
E. coli
  bactericidal activity (in words): more active
E. coli; 50 uM
  % survival with peptide 20-44: 24.6%
E. coli; 75 uM
  % survival with peptide 20-44: 0%
E. coli; listed as CAP37 peptide 20-44
  bactericidal activity (in words): most active
[1]; 50 uM
  % survival with peptide 20-44: 36.9%
[1]; 75 uM
  % survival with peptide 20-44: 3.5%
[1]; 100 and 125 μM, FIG. 15
  bactericidal activity compared with cathepsin G and elastase peptides: very much more bactericidal
[1]
  bactericidal effect on Salmonella typhimurium SH9178 (in words): most potent antibiotic of these peptides; also recorded: Strongest activity; also recorded: extremely active
[1]; listed as CAP37 peptide 20-44
  bactericidal effect on Salmonella typhimurium SH9178 (in words): most active
Salmonella SH7426; 50 uM
  % survival with peptide 20-44: 62.5%
Salmonella SH7426; 75 uM
  % survival with peptide 20-44: 31.9%
Salmonella SH7518; 50 uM
  % survival with peptide 20-44: 0.6%
Salmonella SH7518; 75 uM
  % survival with peptide 20-44: 0%
Salmonella SH7518; Salmonella typhimurium SH7518
  bactericidal activity (in words): most active
Salmonella LT2; 50 uM
  % survival with peptide 20-44: 28.5%
Salmonella LT2; 75 uM
  % survival with peptide 20-44: 1.7%
Salmonella LT2
  bactericidal activity (in words): more active
Salmonella LT2; listed as CAP37 peptide 20-44
  bactericidal activity (in words): most active
[3]
  inhibition of the bactericidal effect by wild type LPS and Lipid A: wild type LPS, but more particularly Lipid A, can inhibit the bactericidal effect
P. mirabilis Re45; 50 uM
  % survival with peptide 20-44: 26.8%
P. mirabilis Re45; 75 uM
  % survival with peptide 20-44: 29%
P. mirabilis Re45; Pr. mirabilis Re45
  bactericidal activity (in words): more active
E. faecalis
  bactericidal activity (in words): more active
E. faecalis; 50 uM
  % survival with peptide 20-44: 16.1%
E. faecalis; 75 uM
  % survival with peptide 20-44: 0%
E. faecalis; listed as CAP37 peptide 20-44
  bactericidal activity (in words): most active
S. aureus 502A; 50 uM
  % survival with peptide 20-44: 58.7%
S. aureus 502A; 75 uM
  % survival with peptide 20-44: 27.5%
Re LPS from Salmonella
  neutralization of Re LPS activity (LAL assay): more dramatic

## 1-44aa: synthesized peptide fragment, amino acids 1-44 of the mature CAP37 protein (IVGGRKARPRQFPFLASIQNQGRHFCGGALIHARFVMTAASCFQ; UniProt P20160 27-70, looked up, fragment)
[1]
  bactericidal effect on Salmonella typhimurium SH9178 (in words): active but not to the same extent as peptide 20-44aa
